Data from paper PMC6736837, “^18F-labelled triazolyl-linked argininamides targeting the neuropeptide Y Y1R for PET imaging of mammary carcinoma” (Scientific Reports, 2019).
“Also recorded” adds a separate entry of the source.

How the values were obtained:
[1] = Radiotracer stability in human serum by radio-HPLC; assay type: in vitro ADME; settings: 37 °C
Description: The stability of ^18F-labelled compounds was determined in human serum. An aliquot of the radiotracer (5–10 MBq) was added to 200 µL human serum and incubated at 37 °C. Aliquots of 15 µL were taken after 5, 10, 15, 30, 45, 60, 120 and 180 min and quenched in 100 µL of 10% aqueous TFA. The samples were centrifuged (20000 × g, 2 min), and the supernatants were analysed by radio-HPLC (Chromolith RP-18e, 100 × 4.6 mm, 4 mL/min, 0–1 min 25% CH3CN (0.1% TFA) in water (0.1% TFA), 1–6 min 25–60%, 6–7 min 60–100%, 7–8 min 100%).

[2] = Binding to human plasma proteins by gel filtration; assay type: in vitro ADME; settings: 37 °C, read-out: Free fraction in plasma
Description: The binding of ^18F-labelled compounds to plasma proteins was determined using gel filtration columns(illustra™ MicroSpin™ G-50 Columns, GE Healthcare Life Sciences, Freiburg). An aliquot of the radiotracer (approx. 100 kBq) was added to 200 µL of saline, and 100 µL of human plasma, respectively. Both samples were incubated at 37 °C for 10 min. MicroSpin™ columns were prepared according to the user instruction. Then 25 µL of the incubated radiotracer were given onto the columns and the devices were centrifuged (2000 × g, 2 min). Eluate and solid phase were analysed in the γ-counter (Wallac Wizard). The percentage of unbound radioligand was calculated as %free=cpmsolidphase/cpmsolidphase+cpmeluate . The sample in saline was used as control.

[3] = Radioactive metabolites of Y1R radioligands in mouse blood; assay type: in vivo; settings: for stability in the blood in vivo (in words): mouse blood samples taken early after radiotracer injection; for intact radioligand in blood samples: 5 min p.i.
Description: Nude mice were anesthetised with isoflurane and injected with the respective radiotracer (3–25 MBq) into the tail vein. After 5 min, animals were sacrificed by cervical dislocation and approx. 100 µL blood were collected from the abdomen and transferred into Li-heparinised Microvettes® (100 LH, Sarstedt). The same volume of aqueous urea (0.8 g/mL) was added and the Microvette® was centrifuged (2000 × g, 5 min). The supernatant was transferred to a 1.5 mL reaction vial, mixed with the same volume of 10% aqueous TFA and centrifuged (20000 × g, 5 min). This step was repeated once. A sample of the resulting supernatant (100 µL) was analysed by radio-HPLC using two methods (Chromolith RP-18e, 100 × 4.6 mm, 4 mL/min, 0–1 min 25% CH3CN (0.1%TFA) in water (0.1%TFA), 1–6 min 25–60%, 6–7 min 60–100%, 7–8 min 100%; Kromasil 100 C8 5 µm, 250 × 4.6 mm, 1.5 mL/min, 1–25 min 20–53.3% CH3CN (0.1% TFA) in water (0.1% TFA), 25–27 min 53.3–80%, 27–28 min 80–100%, 28–32 min 100%).

[4] = Biodistribution in healthy mice; assay type: in vivo, mouse; settings: for kidney uptake: at 30 and 90 min p.i.
Description: Biodistribution studies were conducted using female NMRI outbred mice (HsdWin:NMRI) purchased from Envigo (Horst, The Netherlands). Mice were kept in groups of four to five animals in individually ventilated cages in a twelve hours dark/light cycle with unlimited access to water and standard chow. At the age of eight to nine weeks six animals per radiotracer were injected with 2–4 MBq of the respective radiotracer under isoflurane anesthesia. Mice were sacrificed by cervical dislocation 30 or 90 min p.i. of the radiotracer. Blood as well as the organs/tissues lung, liver, kidneys, heart, spleen, brain, muscle, intestines, gall bladder and bones were harvested and analysed in the γ-counter. Samples were weighed and radioactivity in different tissues was calculated as percentage of the total injected dose per gram tissue (%ID/g).

[5] = tested on: MCF-7-Y1 tumour slices; assay: In-vitro autoradiography on MCF-7-Y1 tumour xenograft slices; assay type: binding, human; settings: blocking with 1 µM and 10 µM BIBP3226
Description: MCF-7-Y1 tumour bearing mice were sacrificed by cervical dislocation under deep isoflurane anesthesia and tumours were excised and subsequently frozen in a hexane/dry ice bath (−70 °C). MCF-7-Y1 tumour slices (14 µm) were prepared on a cryostat microtome HM 500 O (Microm, Walldorf) and thaw-mounted on Histobond® adhesive glass slides (Marienfeld, Lauda-Königshofen).
For autoradiography studies slides were thawed and pre-incubated for 15 min in incubation buffer (50 mM TRIS HCl, pH 7.4, containing 120 mM NaCl, 5 mM MgCl2,) at room temperature. Thereafter, 800 µL of incubation buffer, containing 0.1 MBq of the respective radiotracer were pipetted on the slide and incubated at room temperature for 60 min. For displacement studies BIBP3226 (1 µM or 10 µM) was added to the incubation buffer before pipetting on the slides. Afterwards slides were washed by placing in ice cold incubation buffer (3 × 2 min) followed by short dipping in ice cold distilled water. Slides were carefully dried in a stream of warm air and finally placed on an autoradiography film (Fuji Imaging Plate BAS-IP SR 2025 E, Fujifilm, Düsseldorf) overnight prior to readout (25 µm resolution) on the autoradiograph (HD-CR-35 Bio, Raytest, Straubenhardt) and analysis with the software AIDA (Raytest). Additional sections were stained with hematoxylin and eosin (H&E) for comparison with the autoradiography images.

[6] = tested on: MCF-7-Y1 tumours; assay: Small animal PET in MCF-7-Y1 xenografted nude mice; assay type: in vivo, mouse; settings: 45–60 min p.i., blocking by co-injection of BIBP3226 1 mg/kg
Description: For the NPY Y1R xenograft model, female NMRI nude mice (HsdCpb:NMRI-Foxn1^nu) were purchased from Envigo (Horst, The Netherlands) at the age of three weeks. Mice were kept in groups of four to five animals in individually ventilated cages in a twelve hours dark/light cycle with unlimited access to water and standard chow. At the age of nine to ten weeks one 17β-estradiol pellet per animal (0.72 mg per pellet, 3 mm diameter) with a 60-day release time (Innovative Research of America, Sarasota, FL, USA) was subcutaneously implanted on the back under isoflurane anesthesia. After three days, approximately 10^6 MCF-7-Y1 tumour cells (in 50 µL PBS) were mixed with Matrigel (50 µL, BD Biosciences, Heidelberg) and then injected subcutaneously at the back. Tumour diameters and weight of the animals were recorded five times a week. Imaging studies were performed four weeks after inoculation of the cells.
Small animal PET scans were performed on an Inveon™ microPET scanner (Siemens Healthcare, Erlangen) under isoflurane anesthesia (3%). Tumour bearing mice (26–35 g, n = 2–3 for each radioligand) were intravenously injected into the tail vein with the respective radiotracer (1.5–4.2 MBq in about 100 µL of saline) under isoflurane anesthesia (3–4%). Static images were acquired for 15 min starting 45 min p.i. of the radiotracer. For displacement studies, the same mice were co-injected with the radiotracer ([^18F]12 and [^18F]13 only) and BIBP3226 (1 mg/kg). Images were corrected for decay and attenuation and MAP (iterative maximum a posteriori) images were reconstructed using the built-in software of the PET scanner. Evaluation of the MAP images was conducted using the software PMOD (version 3.6, PMOD Technologies LLC, Zürich). Regions of interests (ROIs) were drawn and radioactivity concentration within these regions was obtained from the mean values and calculated as percentage of the total injected dose per gram tissue (% ID/g).

SMILES	Stability over 3 h in human serum [1] [%]	fraction unbound at 10 min [2]	stability in the blood in vivo (in words) [3]	intact radioligand in blood samples ([3]; mouse)	uptake in the gall bladder ([4]; after 90 min)	kidney uptake [4]	specific binding to MCF-7-Y1 tumour slices (autoradiography) [5]	tumour visualisation / specific tumour accumulation in PET [6]	radiometabolites in the blood ([3]; mouse) [%]
N/C(=N/C(=O)NCc1cn([C@@H]2OC(C[18F])[C@@H](O)C(O)C2O)nn1)NCCC[C@@H](NC(=O)C(c1ccccc1)c1ccccc1)C(=O)NCc1ccc(O)cc1 (stereo partly drawn) [[^18F]11, (2R)‐5‐{[(1Z)‐Amino({[({1‐[(2R,5S)‐6‐([^18F]fluoromethyl)‐3,4,5‐trihydroxyoxan‐2‐yl]‐1H‐1,2,3‐triazol‐4‐yl}methyl)carbamoyl]imino})methyl]amino}‐2‐(2,2‐diphenylacetamido)‐N‐[(4‐hydroxyphenyl)-methyl]pentanamide]	>99	0.42	higher stability in the blood in vivo	about 50%	up to 600 %ID/g	less than 5 %ID/g	very low specific binding	visualision of the tumour with the fluoroglycosylated radiotracer [^18F]11 failed	
N/C(=N/C(=O)NCc1cn(CCOCCOCCOCC[18F])nn1)NCCC[C@@H](NC(=O)C(c1ccccc1)c1ccccc1)C(=O)NCc1ccc(O)cc1 [[^18F]13, (2R)‐5‐{[(1Z)‐Amino[({[1‐(2‐{2‐[2‐(2‐[^18F]fluoroethoxy)ethoxy]ethoxy}ethyl)‐1H‐1,2,3‐triazol‐4‐yl]methyl}carbamoyl)imino]methyl]amino}‐2‐(2,2‐diphenylacetamido)‐N‐[(4‐hydroxyphenyl)-methyl]pentanamide]	>99	0.37	underwent rapid degradation in the blood	less than 5%		less than 5 %ID/g	marked specific binding	displaceable and thus specific Y1R-mediated tumour acculuation in vivo; also recorded: enhanced and specific tumour uptake	> 90
